Activity calls are given as the source filed them. No cut-off for these calls is given here.
Legend:
iNKT [1] = experiment: Immunomodulatory activity in mouse hepatic mononuclear cells containing iNKT cells assessed as IFNgamma release at 25 nM after 72 hrs by ELISA; assay type: functional, cell-based
iNKT [2] = experiment: Immunomodulatory activity in mouse hepatic mononuclear cells containing iNKT cells assessed as IL4 release at 25 nM after 72 hrs by ELISA; assay type: functional, cell-based
iNKT [3] = experiment: Immunomodulatory activity in mouse hepatic mononuclear cells containing iNKT cells assessed as IFNgamma release after 72 hrs by ELISA; assay type: functional, cell-based
iNKT [4] = experiment: Immunomodulatory activity in mouse hepatic mononuclear cells containing iNKT cells assessed as IL4 release after 72 hrs by ELISA; assay type: functional, cell-based
Mus musculus = experiment: Immunomodulatory activity in C57BL/6 mouse serum assessed as IL4 release at 2 ug/ml, iv after 2 to 16 hrs by ELISa; assay type: functional, organism-based

SMILES | Activity (iNKT [1]) | Activity (iNKT [2]) | Activity (iNKT [3]) | Activity (iNKT [4]) | Activity (Mus musculus)
CCCCCCCCCCCCCCCCCCCCCCCCCC(=O)N[C@@H](CO[C@H]1O[C@H](CO)[C@H](O)[C@H](O)[C@H]1O)[C@H](O)[C@H](O)CCCCCCCCCCCCCC | Active | Active | – | – | –
CCCCCCCCCCCCCCCCCCCCCCCCCC(=O)N[C@@H](CO[C@H]1O[C@H](CO)[C@H](O)[C@H](O)[C@H]1O)[C@H](O)[C@H](O)c1cnn(Cc2ccc(CCCCCC)cc2)c1 | – | – | Dose-dependent effect | Dose-dependent effect | Active

— ChEMBL document CHEMBL2057066, “Heteroaromatic Moieties in the Sphingosine Backbone of α-Galactosylceramides for Noncovalent Interactions with CD1d” (ACS Med Chem Lett, 2012)
